In US9605002B2, “5,5-heteroaromatic anti-infective compounds” (priority 2012, dated 2017):
Values after ≈ are worked out from the molar mass of the structure shown.

Tests used:
[1] = test system: M. tuberculosis (Mtb) H37Rv; assay: Microplate Alamar Blue Assay (MABA), 7H12 media, replicating Mtb; assay type: cell-based; details: Mycobacterium tuberculosis, 7H12 media (no glycerol), read-out: 7H12 media: Replicating H37Rv Mtb: MIC 90
[2] = test system: VERO kidney epithelial cells; assay: VERO toxicity assessment; details: Chlorocebus sabaeus, Vero, read-out: VERO: IC50
[3] = test system: M. tuberculosis (Mtb) H37Rv; assay: Microplate Alamar Blue Assay (MABA), GAS media, replicating Mtb; assay type: cell-based, Mycobacterium tuberculosis; details: Mycobacterium tuberculosis; GAS (glycerol-alanine-salt) media, replicating H37Rv; read-out: GAS media: replicating H37Rv Mtb: MIC 90

Row | SMILES | MIC90 [1] | IC50 [2] | MIC90 [3]
1 | Cc1cn2c(C(=O)NCc3ccc4nc(-c5ccc(F)cc5)oc4c3)c(C)nc2s1 [ND-020066] | 2 to 10 µM (≈ 0.841 to 4.2 µg/mL) | 20 to 32 µM | < 2 µM
2 | CCc1nc2sc(C)cn2c1C(=O)NCc1ccc(N2CCN(c3ccc(F)cc3)CC2)cc1 [ND-020048] | < 2 µM | 10 to 20 µM | < 2 µM
3 | Cc1cn2c(C(=O)NCc3cccc(C(F)(F)F)c3)c(C)nc2s1 [ND-020008] | < 2 µM | < 32 µM | < 2 µM
4 | Cc1cn2c(C(=O)NCc3ccc(-n4cnnc4)cc3)c(C)nc2s1 [ND-020065] | 2 to 10 µM (≈ 0.705 to 3.52 µg/mL) | 20 to 32 µM | 2 to 10 µM
5 | Cc1cn2c(C(=O)NCc3ccc(N4CCOCC4)c(Cl)c3)c(C)nc2s1 [ND-020035] | < 2 µM | 20 to 32 µM | < 2 µM
6 | COc1ccc(COC(=O)c2c(C)nc3sc(C)cn23)cc1 [ND-010050] | 10 to 20 µM (≈ 3.16 to 6.33 µg/mL) | < 32 µM | 2 to 10 µM
7 | Cc1cn2c(C(=O)NCc3cccc(OC(C)C)c3)c(C)nc2s1 [ND-020030] | < 2 µM | < 32 µM | < 2 µM
8 | Cc1cn2c(C(=O)NCc3ncc(C(F)(F)F)cc3Cl)c(C)nc2s1 [ND-020016] | < 2 µM | < 32 µM | < 2 µM
9 | Cc1cn2c(C(=O)NCc3ccc(N4CC(C)OC(C)C4)cc3)c(C)nc2s1 (stereo not drawn) [ND-020074] | < 2 µM | 20 to 32 µM | < 2 µM
10 | Cc1cn2c(C(=O)Nc3ccc(-c4ccc(C(F)(F)F)cc4)nc3)c(C)nc2s1 [ND-020044] | 2 to 10 µM (≈ 0.833 to 4.16 µg/mL) | < 32 µM | 2 to 10 µM
11 | CCOc1cccc(CNC(=O)c2c(C)nc3sc(C)cn23)c1 [ND-020029] | < 2 µM | < 32 µM | < 2 µM
12 | Cc1cn2c(C(=O)NCc3ccccc3)c(C)nc2s1 [ND-009749] | < 2 µM | < 32 µM | < 2 µM
13 | Cc1cn2c(C(=O)NCc3cccc(N4CCC(c5ccc(F)cc5)CC4)c3)c(C)nc2s1 [ND-020045] | 2 to 10 µM (≈ 0.925 to 4.63 µg/mL) | 20 to 32 µM | < 2 µM
14 | CCc1nc2sc(Cl)cn2c1C(=O)NCc1ccc(Oc2ccc(Cl)cc2)cc1 [ND-020053] | < 2 µM | 20 to 32 µM | < 2 µM
15 | Cc1nc2sc(F)cn2c1C(=O)NCc1ccc2c(c1)OCC2 [ND-020061] | < 2 µM | < 32 µM | < 2 µM
16 | Cc1cn2c(C(=O)NCc3ccc4c(ccn4C)c3)c(C(F)(F)F)nc2s1 [ND-020080] | < 2 µM | < 32 µM | < 2 µM
17 | Cc1cn2c(C(=O)NCc3cccc(N4CCN(c5ccc(F)cc5)CC4)c3)c(C)nc2s1 [ND-020047] | 2 to 10 µM (≈ 0.927 to 4.64 µg/mL) | 20 to 32 µM | < 2 µM
18 | Cc1cn2c(C(=O)NCc3ccc4c(c3)OCC4)c(C)nc2s1 [ND-020018] | < 2 µM | < 32 µM | < 2 µM
19 | Cc1cn2c(C(=O)NCc3cc(Cl)cc(Cl)c3)c(C)nc2s1 [ND-020005] | < 2 µM | < 32 µM | < 2 µM
20 | Cc1cn2c(C(=O)NCc3cccc(Oc4ccc(F)cc4)c3)c(C)nc2s1 [ND-020059] | < 2 µM | 20 to 32 µM | < 2 µM
21 | Cc1nc2sc(C(F)(F)F)cn2c1C(=O)NCc1ccc(N2CCOCC2)c(F)c1 [ND-020038] | 2 to 10 µM (≈ 0.885 to 4.42 µg/mL) | < 32 µM | 2 to 10 µM

Row | SMILES | MIC90 [1] | IC50 [2] | MIC90 [3]
22 | Cc1cn2c(C(=O)NCc3cccc(Cl)c3)c(C(F)(F)F)nc2s1 [ND-020014] | 2 to 10 µM (≈ 0.748 to 3.74 µg/mL) | < 32 µM | < 2 µM
23 | Cc1cn2c(C(=O)NCc3cccc(N4CCOCC4)n3)c(C)nc2s1 [ND-020036] | 2 to 10 µM (≈ 0.743 to 3.71 µg/mL) | < 32 µM | < 2 µM
24 | Cc1cn2c(C(=O)NCc3cccc(N4CC(C)CC(C)C4)c3)c(C)nc2s1 (stereo not drawn) [ND-020068] | < 2 µM | < 32 µM | < 2 µM
25 | Cc1cn2c(C(=O)NCc3cc(F)cc(F)c3)c(C)nc2s1 [ND-020004] | < 2 µM | < 32 µM | < 2 µM
26 | Cc1cn2c(C(=O)NCc3cccc(N4CCCC4)c3)c(C)nc2s1 [ND-020073] | < 2 µM | < 32 µM | < 2 µM
27 | Cc1nc2sc(F)cn2c1C(=O)NCc1cccc(Cl)c1 [ND-020056] | 2 to 10 µM (≈ 0.648 to 3.24 µg/mL) | < 32 µM | < 2 µM
28 | CCc1nc2sc(C)cn2c1C(=O)NCc1ccc(-c2ccc(C(F)(F)F)cc2)cc1 [ND-020043] | 2 to 10 µM (≈ 0.887 to 4.43 µg/mL) | < 32 µM | < 2 µM
29 | Cc1cn2c(C(=O)NCc3ccc(C(C)(C)C)cc3)c(C)nc2s1 [ND-020031] | < 2 µM | < 32 µM | < 2 µM
30 | Cc1cn2c(C(=O)NCc3ccc(C(F)(F)F)cc3)c(C)nc2s1 [ND-020009] | < 2 µM | < 32 µM | < 2 µM
31 | COC(=O)c1c(C)nc2sc(C)c(C)n12 [ND-009744] | < 32 µM | < 32 µM | < 32 µM
32 | CCc1nc2sc(C)cn2c1C(=O)NCc1ccc2ccn(C)c2c1 [ND-020078] | < 2 µM | < 32 µM | < 2 µM
33 | Cc1nc2sc(Cl)cn2c1C(=O)NCc1ccc(N(C)C)cc1 [ND-020022] | < 2 µM | < 32 µM | < 2 µM
34 | Cc1cn2c(C(=O)NCc3cccc(F)c3)c(C)nc2s1 [ND-009762] | < 2 µM | < 32 µM | < 2 µM
35 | Cc1cn2c(C(=O)NCc3ccc(Oc4ccc(C(F)(F)F)cc4)cc3)c(C)nc2s1 [ND-020055] | < 2 µM | 20 to 32 µM | < 2 µM
36 | Cc1nc2sc(C(F)(F)F)cn2c1C(=O)NCc1ccc(Cl)cc1 [ND-020015] | 2 to 10 µM (≈ 0.748 to 3.74 µg/mL) | < 32 µM | < 2 µM
37 | Cc1cn2c(C(=O)NCCc3ccc(Cl)cc3)c(C)nc2s1 [ND-020081] | < 2 µM | < 32 µM | < 2 µM
38 | CCc1nc2sc(C)cn2c1C(=O)NCc1ccc(C(F)(F)F)cc1 [ND-020010] | < 2 µM | < 32 µM | < 2 µM
39 | CCc1nc2sc(C)cn2c1C(=O)NCc1ccc(N(C)C)cc1 [ND-020026] | < 2 µM | < 32 µM | < 2 µM
40 | Cc1cn2c(C(=O)NCc3ccc(OC(F)(F)F)cc3)c(C)nc2s1 [ND-020006] | < 2 µM | < 32 µM | < 2 µM
41 | CCc1nc2sc(C)cn2c1C(=O)OC [ND-009743] | < 32 µM | < 32 µM | < 32 µM
42 | Cc1cn2c(C(=O)NCc3ccccc3Cl)c(C)nc2s1 [ND-020001] | < 2 µM | < 32 µM | < 2 µM

Row | SMILES | MIC90 [1] | IC50 [2] | MIC90 [3]
43 | Cc1cn2c(C(=O)NCc3ccc(N4CC(C)CC(C)C4)cc3)c(C)nc2s1 (stereo not drawn) [ND-020069] | < 2 µM | 20 to 32 µM | < 2 µM
44 | CC1=Nn2c(nc(C)c2C(=O)NCc2ccc(Oc3ccc(F)cc3)cc2)C1 [ND-020050] | 2 to 10 µM (≈ 0.757 to 3.78 µg/mL) | 20 to 32 µM | < 2 µM
45 | Cc1cn2c(C(=O)NCc3cccc(Oc4ccc(C(F)(F)F)cc4)c3)c(C)nc2s1 [ND-020057] | < 2 µM | < 32 µM | < 2 µM
46 | Cc1cn2c(C(=O)NCc3ccc(Oc4ccc(Cl)cc4)cc3)c(C)nc2s1 [ND-020060] | < 2 µM | 10 to 20 µM | < 2 µM
47 | CCc1nc2sc(C)cn2c1C(=O)NCc1ccc(Oc2ccc(C(F)(F)F)cc2)cc1 [ND-020054] | < 2 µM | 20 to 32 µM | < 2 µM
48 | Cc1nn2c(C(=O)NCc3ccc(Oc4ccc(F)cc4)cc3)c(C)nc2o1 [ND-020051] | 2 to 10 µM (≈ 0.761 to 3.8 µg/mL) | 20 to 32 µM | 2 to 10 µM
49 | Cc1nn2c(C(=O)OCc3ccccc3)c(C)nc2s1 [ND-010475] | 10 to 20 µM (≈ 2.87 to 5.75 µg/mL) | < 32 µM | < 2 µM
50 | Cc1cn2c(C(=O)Nc3ccc(-c4ccc(C(F)(F)F)cc4)cc3)c(C)nc2s1 [ND-020042] | 2 to 10 µM (≈ 0.831 to 4.15 µg/mL) | < 32 µM | < 2 µM
51 | Cc1cn2c(C(=O)NCc3ccc(F)cc3)c(C)nc2s1 [ND-020003] | 2 to 10 µM (≈ 0.607 to 3.03 µg/mL) | < 32 µM | < 2 µM
52 | Cc1cn2c(C(=O)NCc3cccc(Oc4ccc(Cl)cc4)c3)c(C)nc2s1 [ND-020058] | < 2 µM | 20 to 32 µM | < 2 µM
53 | Cc1nc2sc(Cl)cn2c1C(=O)NCc1ccc(C(F)(F)F)cc1 [ND-020012] | < 2 µM | < 32 µM | < 2 µM
54 | Cc1cn2c(C(=O)NCc3ccc4ccn(C)c4c3)c(C)nc2s1 [ND-020077] | < 2 µM | < 32 µM | < 2 µM
55 | Cc1nc2sc(C)c(C)n2c1C(=O)NCc1ccc(C(F)(F)F)cc1 [ND-020013] | 10 to 20 µM (≈ 3.67 to 7.35 µg/mL) | < 32 µM | 2 to 10 µM
56 | Cc1cn2c(C(=O)NCc3ccc(N(C)C)cc3)c(C(F)(F)F)nc2s1 [ND-020025] | 2 to 10 µM (≈ 0.765 to 3.82 µg/mL) | < 32 µM | < 2 µM
57 | CCc1nc2sc(C)cn2c1C(=O)NCc1ccc(N2CCC(c3ccc(F)cc3)CC2)cc1 [ND-020046] | < 2 µM | 10 to 20 µM | < 2 µM
58 | Cc1nc2sc(Cl)cn2c1C(=O)NCc1ccc2c(c1)OCC2 [ND-020062] | < 2 µM | < 32 µM | < 2 µM
59 | Cc1cn2c(C(=O)NCc3cccc(N4CCOCC4)c3)c(C)nc2s1 [ND-020032] | 2 to 10 µM (≈ 0.741 to 3.7 µg/mL) | < 32 µM | < 2 µM
60 | Cc1cn2c(C(=O)NCc3ccc(N4CCCC4)cc3)c(C)nc2s1 [ND-020071] | < 2 µM | 20 to 32 µM | < 2 µM
61 | Cc1nn2c(C(=O)NCc3ccc(Oc4ccc(F)cc4)cc3)c(C)nc2s1 [ND-020052] | 2 to 10 µM (≈ 0.793 to 3.96 µg/mL) | 20 to 32 µM | < 2 µM
62 | Cc1cn2c(C(=O)NCc3cccc(N4CC(C)OC(C)C4)c3)c(C)nc2s1 (stereo not drawn) [ND-020075] | < 2 µM | < 32 µM | < 2 µM
